What all share (test): biochemical
What all share (parameters): Eurofins KinaseProfiler full panel at Km ATP, residual kinase activity (%) relative to DMSO

Test [1] deals with NEK4 (Homo sapiens, UniProt P51957). Summed up:
(§1)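 Compounds screened at 10 µM in radiometric kinase activity assays at Km ATP, reported as remaining kinase activity (%). A KINOMEscan competition-binding screen at 10 µM measured DNA-tagged kinase retained on immobilized active-site ligand by qPCR.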

The target of test [2] is T1, MEK2(h) (Homo sapiens, UniProt P36507).
T1 construct: gene MAP2K2
T1 sequence (P36507 whole entry): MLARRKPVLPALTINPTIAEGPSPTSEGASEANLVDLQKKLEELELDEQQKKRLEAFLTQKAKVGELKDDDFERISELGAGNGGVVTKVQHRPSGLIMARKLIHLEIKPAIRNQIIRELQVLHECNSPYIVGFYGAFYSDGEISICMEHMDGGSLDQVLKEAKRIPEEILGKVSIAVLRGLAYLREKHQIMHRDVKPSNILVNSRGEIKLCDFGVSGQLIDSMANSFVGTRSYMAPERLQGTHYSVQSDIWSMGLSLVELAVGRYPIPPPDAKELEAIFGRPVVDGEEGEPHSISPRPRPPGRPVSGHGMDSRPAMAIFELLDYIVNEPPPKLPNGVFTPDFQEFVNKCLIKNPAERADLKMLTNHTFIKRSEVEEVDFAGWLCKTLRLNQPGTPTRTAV
The gist of the method: as §1

For test [3], the target named is T2, GRK2(h) (Homo sapiens, UniProt P25098).
T2 sequence (P25098 1-689): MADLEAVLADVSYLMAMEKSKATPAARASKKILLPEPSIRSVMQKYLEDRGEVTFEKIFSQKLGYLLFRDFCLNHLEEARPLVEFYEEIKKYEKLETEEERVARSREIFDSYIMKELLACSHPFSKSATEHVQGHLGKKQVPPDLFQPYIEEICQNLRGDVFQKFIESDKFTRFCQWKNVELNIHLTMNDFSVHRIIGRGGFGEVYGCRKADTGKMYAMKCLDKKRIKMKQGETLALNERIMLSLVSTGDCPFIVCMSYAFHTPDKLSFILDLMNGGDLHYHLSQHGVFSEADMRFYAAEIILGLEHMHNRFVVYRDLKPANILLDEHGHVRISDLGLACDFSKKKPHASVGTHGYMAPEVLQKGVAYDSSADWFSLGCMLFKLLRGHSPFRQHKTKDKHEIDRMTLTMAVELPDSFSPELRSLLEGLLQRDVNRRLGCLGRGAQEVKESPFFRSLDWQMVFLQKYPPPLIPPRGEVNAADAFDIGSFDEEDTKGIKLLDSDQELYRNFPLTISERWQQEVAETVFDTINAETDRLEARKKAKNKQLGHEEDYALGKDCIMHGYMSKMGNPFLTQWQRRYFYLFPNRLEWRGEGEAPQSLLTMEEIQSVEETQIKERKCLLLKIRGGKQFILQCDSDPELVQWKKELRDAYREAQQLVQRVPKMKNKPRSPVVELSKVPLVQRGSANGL
The gist of the method:
as §1

Test [4] concerns the target TAF1L(h) (Homo sapiens, UniProt Q8IZX4). The gist of the method: as §1
Test [5] deals with T3, PKCμ(h) (Homo sapiens, UniProt Q15139).
T3 construct: gene PRKD1
T3 sequence (Q15139 1-912): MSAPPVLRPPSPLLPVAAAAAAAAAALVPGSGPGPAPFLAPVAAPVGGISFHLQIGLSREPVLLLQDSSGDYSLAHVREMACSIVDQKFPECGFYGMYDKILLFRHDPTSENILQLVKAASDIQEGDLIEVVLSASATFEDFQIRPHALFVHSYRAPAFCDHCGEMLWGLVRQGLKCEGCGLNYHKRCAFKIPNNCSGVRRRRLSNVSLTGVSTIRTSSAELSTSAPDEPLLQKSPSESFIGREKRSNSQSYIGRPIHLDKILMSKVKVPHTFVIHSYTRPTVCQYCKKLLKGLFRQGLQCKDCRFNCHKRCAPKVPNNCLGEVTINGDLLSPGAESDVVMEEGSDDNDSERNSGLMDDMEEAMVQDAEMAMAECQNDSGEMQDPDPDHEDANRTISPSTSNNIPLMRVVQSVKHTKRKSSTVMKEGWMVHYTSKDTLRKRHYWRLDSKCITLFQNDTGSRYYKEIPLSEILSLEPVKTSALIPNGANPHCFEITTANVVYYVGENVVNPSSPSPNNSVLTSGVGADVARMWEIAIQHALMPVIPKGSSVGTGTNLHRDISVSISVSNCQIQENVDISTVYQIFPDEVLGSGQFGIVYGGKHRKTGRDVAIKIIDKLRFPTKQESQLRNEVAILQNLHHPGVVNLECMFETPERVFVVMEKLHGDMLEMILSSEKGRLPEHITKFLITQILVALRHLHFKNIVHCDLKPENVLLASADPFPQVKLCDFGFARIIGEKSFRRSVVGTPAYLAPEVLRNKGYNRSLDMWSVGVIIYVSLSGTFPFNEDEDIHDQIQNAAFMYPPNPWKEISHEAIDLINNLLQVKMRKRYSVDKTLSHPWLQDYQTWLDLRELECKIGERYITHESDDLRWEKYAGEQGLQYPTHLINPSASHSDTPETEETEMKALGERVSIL
Summed up:
as §1

Where [6] appears, read: read-out: Residual activity (%) Spautin-1 5aa.
Where [7] appears, read: read-out: Residual activity (%) 5as.
Setting [8] is: read-out: Residual activity (%) 5at.
[9] abbreviates: read-out: Residual activity (%) 5ay.

Like-named read-outs stand apart in the source and are kept apart here.

Sequence of TAF1L(h) (Q8IZX4 whole entry): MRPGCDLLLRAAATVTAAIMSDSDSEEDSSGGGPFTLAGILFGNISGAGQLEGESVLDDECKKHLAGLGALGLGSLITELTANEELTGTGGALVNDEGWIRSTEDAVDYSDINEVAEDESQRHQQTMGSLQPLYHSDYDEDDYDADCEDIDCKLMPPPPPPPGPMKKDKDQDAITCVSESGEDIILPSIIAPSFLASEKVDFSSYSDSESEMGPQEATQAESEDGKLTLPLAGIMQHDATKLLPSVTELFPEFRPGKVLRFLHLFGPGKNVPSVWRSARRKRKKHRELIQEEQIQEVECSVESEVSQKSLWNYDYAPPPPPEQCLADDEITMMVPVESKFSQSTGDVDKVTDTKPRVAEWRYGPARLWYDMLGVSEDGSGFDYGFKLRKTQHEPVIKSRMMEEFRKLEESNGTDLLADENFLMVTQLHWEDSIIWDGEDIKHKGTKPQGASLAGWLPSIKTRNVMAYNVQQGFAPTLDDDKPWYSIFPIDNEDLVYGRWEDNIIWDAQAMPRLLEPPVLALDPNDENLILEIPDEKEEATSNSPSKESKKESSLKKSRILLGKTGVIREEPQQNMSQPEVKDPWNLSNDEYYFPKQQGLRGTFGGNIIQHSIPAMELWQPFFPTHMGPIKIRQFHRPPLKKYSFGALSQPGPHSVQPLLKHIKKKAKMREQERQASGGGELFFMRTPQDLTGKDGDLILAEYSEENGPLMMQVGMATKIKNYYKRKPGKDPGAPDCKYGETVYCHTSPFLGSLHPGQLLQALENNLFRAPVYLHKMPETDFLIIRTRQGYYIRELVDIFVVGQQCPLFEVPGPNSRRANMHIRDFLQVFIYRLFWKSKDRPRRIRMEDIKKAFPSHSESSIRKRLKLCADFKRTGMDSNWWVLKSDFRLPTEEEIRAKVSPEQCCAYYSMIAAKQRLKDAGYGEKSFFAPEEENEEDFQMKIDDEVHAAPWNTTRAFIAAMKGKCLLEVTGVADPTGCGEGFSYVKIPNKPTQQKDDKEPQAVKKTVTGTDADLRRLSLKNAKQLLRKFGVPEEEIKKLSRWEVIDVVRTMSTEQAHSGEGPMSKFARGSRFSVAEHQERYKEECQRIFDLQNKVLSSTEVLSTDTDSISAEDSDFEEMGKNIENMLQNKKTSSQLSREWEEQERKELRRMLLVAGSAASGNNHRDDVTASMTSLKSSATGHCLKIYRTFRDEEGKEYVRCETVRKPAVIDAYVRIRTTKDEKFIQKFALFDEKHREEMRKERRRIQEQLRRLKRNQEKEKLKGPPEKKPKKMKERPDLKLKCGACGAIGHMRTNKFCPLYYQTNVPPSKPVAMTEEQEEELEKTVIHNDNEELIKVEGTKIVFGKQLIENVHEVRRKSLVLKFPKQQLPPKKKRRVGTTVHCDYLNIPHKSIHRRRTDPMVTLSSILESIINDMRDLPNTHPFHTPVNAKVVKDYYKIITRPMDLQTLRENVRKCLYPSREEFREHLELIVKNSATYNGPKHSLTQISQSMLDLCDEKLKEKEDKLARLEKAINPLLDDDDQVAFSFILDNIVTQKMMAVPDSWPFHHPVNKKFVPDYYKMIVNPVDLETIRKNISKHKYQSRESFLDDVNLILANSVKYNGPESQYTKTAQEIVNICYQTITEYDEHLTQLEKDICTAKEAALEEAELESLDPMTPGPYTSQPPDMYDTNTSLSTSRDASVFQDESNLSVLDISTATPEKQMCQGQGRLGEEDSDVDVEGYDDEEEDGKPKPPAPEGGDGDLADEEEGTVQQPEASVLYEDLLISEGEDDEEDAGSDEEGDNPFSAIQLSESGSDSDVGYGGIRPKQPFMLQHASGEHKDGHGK
Sequence of NEK4 (P51957 whole entry): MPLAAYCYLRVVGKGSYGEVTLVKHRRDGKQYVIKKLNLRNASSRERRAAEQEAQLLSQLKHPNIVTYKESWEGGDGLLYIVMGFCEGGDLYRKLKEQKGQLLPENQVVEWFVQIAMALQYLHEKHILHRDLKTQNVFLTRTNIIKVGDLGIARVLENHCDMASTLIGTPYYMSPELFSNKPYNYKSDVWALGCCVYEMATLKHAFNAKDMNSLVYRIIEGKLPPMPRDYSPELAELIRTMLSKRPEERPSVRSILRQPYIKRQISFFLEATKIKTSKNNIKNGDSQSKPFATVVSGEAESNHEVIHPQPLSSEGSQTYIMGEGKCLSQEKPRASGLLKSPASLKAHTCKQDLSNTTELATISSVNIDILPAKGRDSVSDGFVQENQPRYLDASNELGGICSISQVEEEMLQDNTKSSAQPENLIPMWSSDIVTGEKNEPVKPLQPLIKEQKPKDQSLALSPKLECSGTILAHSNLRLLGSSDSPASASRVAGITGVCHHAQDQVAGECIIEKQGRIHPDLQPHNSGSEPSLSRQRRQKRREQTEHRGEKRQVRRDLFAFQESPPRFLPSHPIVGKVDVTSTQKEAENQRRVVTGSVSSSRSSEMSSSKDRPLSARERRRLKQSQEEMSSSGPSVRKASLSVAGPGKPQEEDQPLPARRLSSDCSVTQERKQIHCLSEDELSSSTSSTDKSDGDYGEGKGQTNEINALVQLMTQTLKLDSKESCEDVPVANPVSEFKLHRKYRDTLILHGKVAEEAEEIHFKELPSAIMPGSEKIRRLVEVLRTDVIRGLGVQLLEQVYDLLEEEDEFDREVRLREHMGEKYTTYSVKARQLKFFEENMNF

For the compound `Fc1ccc(CNc2ncnc3ccc(F)cc23)cc1` [5aa, 6-Fluoro-N-(4-fluorobenzyl)-4-Quinazolinamine], the remaining activity at 10 µM is 71% in test [1] (setting [6]); 92% in test [2] (setting [6]); 107% in test [3] (setting [6]); 80% in test [4] (setting [6]); 97% in test [5] (setting [6]).
Take `Fc1ccc(CCNc2ncnc3ccc(F)cc23)cc1` [5as, 6-Fluoro-N-[2-(4-Fluorophenyl)Ethyl]-4-Quinazolinamine]: the remaining activity at 10 µM is 96% in test [2] (setting [7]), 101% in test [3] (setting [7]), 66% in test [4] (setting [7]) and 85% in test [5] (setting [7]).
For `Fc1ccc2ncnc(NCCc3ccc(Cl)cc3)c2c1` [5at, N-[2-(4-Chlorophenyl)Ethyl]-6-Fluoro-4-Quinazolinamine], the remaining activity at 10 µM in test [1] (setting [8]) was 12%; in test [2] (setting [8]) it was 99%; in test [3] (setting [8]) it was 107%; in test [4] (setting [8]), 70%; in test [5] (setting [8]), 80%.
For the compound `COc1ccc2ncnc(Nc3cccc(F)c3)c2c1` [5ay, N-(3-Fluorophenyl)-6-Methoxy-4-Quinazolinamine], the remaining activity at 10 µM stood at 30% in test [1] (setting [9]); 95% in test [2] (setting [9]); 95% in test [3] (setting [9]); 32% in test [4] (setting [9]); 93% in test [5] (setting [9]).

The record behind these values is paper PMC7827406, “Structure–Activity Relationship (SAR) Study of Spautin-1 to Entail the Discovery of Novel NEK4 Inhibitors” (International Journal of Molecular Sciences, 2021).
